Laboratory results: ChEMBL document CHEMBL1165968, “IKKbeta inhibitors identification part II: ligand and structure-based virtual screening” (Bioorg Med Chem, 2010)

How the values were obtained:
[1] = biological target: T1, Inhibitor of nuclear factor kappa-B kinase subunit beta (Homo sapiens, UniProt O14920); assay: Inhibition of IKK-beta by TR-FRET assay
T1 sequence (O14920 whole entry): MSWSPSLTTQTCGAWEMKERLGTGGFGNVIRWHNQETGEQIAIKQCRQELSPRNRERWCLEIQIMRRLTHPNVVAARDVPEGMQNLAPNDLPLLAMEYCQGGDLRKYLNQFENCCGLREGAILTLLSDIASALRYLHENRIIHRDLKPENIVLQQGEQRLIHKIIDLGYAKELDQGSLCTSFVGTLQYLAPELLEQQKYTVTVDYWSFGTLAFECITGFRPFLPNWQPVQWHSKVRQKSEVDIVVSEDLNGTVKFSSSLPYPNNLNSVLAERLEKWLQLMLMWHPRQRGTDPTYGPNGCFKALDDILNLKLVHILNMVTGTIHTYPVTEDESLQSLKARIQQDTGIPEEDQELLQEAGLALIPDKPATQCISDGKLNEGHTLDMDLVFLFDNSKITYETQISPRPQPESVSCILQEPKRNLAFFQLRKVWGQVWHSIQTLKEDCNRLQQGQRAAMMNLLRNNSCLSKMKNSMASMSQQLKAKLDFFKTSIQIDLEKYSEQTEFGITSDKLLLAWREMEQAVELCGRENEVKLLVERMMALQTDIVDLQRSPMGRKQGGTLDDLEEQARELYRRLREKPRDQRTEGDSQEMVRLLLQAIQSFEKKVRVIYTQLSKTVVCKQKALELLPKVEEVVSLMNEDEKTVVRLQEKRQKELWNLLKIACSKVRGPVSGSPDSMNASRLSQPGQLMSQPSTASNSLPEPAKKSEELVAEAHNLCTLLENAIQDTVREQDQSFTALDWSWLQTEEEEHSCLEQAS

[2] = biological target: T2, Inhibitor of nuclear factor kappa-B kinase subunit beta (Homo sapiens) (UniProt O14920); assay: Inhibition of IKK-beta at 10 uM by TR-FRET assay
T2 sequence (whole entry): T1 sequence (O14920 whole entry)

SMILES | IC50 [1] [µM] | inhibition [2] [%]
COc1ccc(C(=O)Nc2nnc(CC(=O)N/N=C/c3ccc(O)c(OC)c3)s2)cc1 | 10.8 | 53.1
CC1=NN(c2ccc(S(N)(=O)=O)cc2)C(=O)/C1=C/c1ccc(-c2ccc3c(c2)C(=O)NC3=O)o1 | 6.7 | 84.8

Next, values leading:

IC50 [1] [µM] | inhibition [2] [%] | SMILES
0.174 | – | N#Cc1c(C2CCCNC2)cc(-c2ccccc2O)nc1N (stereo not drawn)
< 1 | – | Cc1cc(N2CCC(O)CC2)nc2sc(C(N)=O)c(N)c12
6.98 | 76.4 | COc1cc(/C=N/NC(=O)Cc2nnc(NC(=O)c3ccc([N+](=O)[O-])cc3)s2)ccc1O
